These results are taken from patent US8680275B2, “Fused heterocyclic compounds as orexin receptor modulators” (Janssen Pharmaceutica NV, priority 2009, dated 2014).

Experiment [1] addresses human orexin-2 receptor (Homo sapiens (Human), UniProt O43614). As to the kind of experiment: Human orexin 2 receptor radioligand binding ([3H]-EMPA competition). To be noted: HEK293 cells stably expressing human orexin-2 receptor; [3H]-EMPA 5 nM final; read-out: OR-2 Ki. Summed up: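 Competition binding on HEK293 cells stably expressing human orexin-2 receptor, using 5 nM final [3H]-EMPA in PBS, compounds 0.1 nM to 10 μM (DMSO ≤0.1%). 60 min at room temperature, then filtration and scintillation counting; nonspecific binding defined with 10 μM of a reference antagonist.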

Experiment [2] deals with human orexin 1 receptor (Homo sapiens (Human), UniProt O43613). Kind of experiment: Human orexin 1 receptor radioligand binding ([3H]-SB674042 competition). To be noted: read-out: OR-1 Ki. In outline: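 CHO cells stably expressing human OX1R incubated 60 min at room temperature with [3H]-SB674042 and compounds (7 concentrations, 0.1 nM–10 μM; DMSO ≤0.1%) in PBS. Nonspecific binding defined with 10 μM of a reference urea antagonist; bound radioactivity measured by filtration and scintillation counting.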

[3] abbreviates: CHO cells stably expressing human orexin 1 receptor, [3H]-SB674042 4 nM final.

Molecules are shown by their SMILES. pKi: −log10 of the molar value. Like-named read-outs stand apart in the source and are kept apart here.

Sequence of human orexin-2 receptor (O43614 whole entry): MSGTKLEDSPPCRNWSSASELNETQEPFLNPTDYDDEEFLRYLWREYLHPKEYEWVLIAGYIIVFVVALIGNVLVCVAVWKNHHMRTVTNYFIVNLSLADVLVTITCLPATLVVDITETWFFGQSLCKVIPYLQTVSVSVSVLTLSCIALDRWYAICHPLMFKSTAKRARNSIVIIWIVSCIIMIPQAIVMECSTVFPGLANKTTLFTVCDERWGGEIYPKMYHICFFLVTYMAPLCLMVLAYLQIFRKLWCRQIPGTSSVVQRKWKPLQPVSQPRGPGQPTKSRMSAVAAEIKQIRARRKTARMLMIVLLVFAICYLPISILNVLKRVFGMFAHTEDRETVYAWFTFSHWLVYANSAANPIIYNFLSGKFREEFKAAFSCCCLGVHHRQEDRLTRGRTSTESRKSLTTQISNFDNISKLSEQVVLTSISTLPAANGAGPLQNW
Sequence of human orexin 1 receptor (O43613 whole entry): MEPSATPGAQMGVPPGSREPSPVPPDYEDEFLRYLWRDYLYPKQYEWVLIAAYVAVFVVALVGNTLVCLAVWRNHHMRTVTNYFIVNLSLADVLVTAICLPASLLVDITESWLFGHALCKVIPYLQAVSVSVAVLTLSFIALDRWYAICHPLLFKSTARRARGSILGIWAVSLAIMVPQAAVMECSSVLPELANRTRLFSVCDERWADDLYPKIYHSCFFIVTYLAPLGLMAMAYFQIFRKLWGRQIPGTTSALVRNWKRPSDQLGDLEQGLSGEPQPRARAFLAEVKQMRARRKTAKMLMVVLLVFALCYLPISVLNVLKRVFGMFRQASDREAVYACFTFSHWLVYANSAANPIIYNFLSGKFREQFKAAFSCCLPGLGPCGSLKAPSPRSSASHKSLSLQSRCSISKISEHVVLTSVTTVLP

For orientation: pKi means the Ki on a negative log10 scale, so that one unit is a factor of ten. Regarding `Cc1cc(C)nc(N2C[C@@H]3CCN(C(=O)c4cccnc4C(F)(F)F)C[C@@H]32)n1` [Example 89, (1R,6S)-8-(4,6-Dimethylpyrimidin-2-yl)-3-{[2-(trifluoromethyl)pyridin-3-yl]carbonyl}-3,8-diazabicyclo[4.2.0]octane], the pKi is 6.66 in experiment [1] and 5.00 in experiment [2] (setting [3]).

Turning to `COc1ccc(C(=O)N2CC[C@H]3CN(c4nc(C)cc(C)n4)[C@H]3C2)c(-n2nccn2)c1` [Example 90, (1R,6S)-8-(4,6-Dimethylpyrimidin-2-yl)-3-{[4-methoxy-2-(2H-1,2,3-triazol-2-yl)phenyl]carbonyl}-3,8-diazabicyclo[4.2.0]octane], the values for the pKi in experiment [1] and in experiment [2] (setting [3]) were 6.82 and no more than 5.00, respectively.

On to `Cc1cc(N2C[C@@H]3CCN(C(=O)c4ccc(C)nc4-n4ccnn4)C[C@@H]32)nc(C(F)(F)F)n1` [Example 91, (1R,6S)-3-{[6-Methyl-2-(1H-1,2,3-triazol-1-yl)pyridin-3-yl]carbonyl}-8-[6-methyl-2-(trifluoromethyl)pyrimidin-4-yl]-3,8-diazabicyclo[4.2.0]octane], for which the results for the pKi in experiment [1] and in experiment [2] (setting [3]) were 6.28 and 5.27, respectively.

On to `Cc1cc(N2C[C@@H]3CCN(C(=O)c4c(F)cccc4-c4ncccn4)C[C@@H]32)nc(C(F)(F)F)n1` [Example 92, (1R,6S)-3-[(2-Fluoro-6-pyrimidin-2-ylphenyl)carbonyl]-8-[6-methyl-2-(trifluoromethyl)pyrimidin-4-yl]-3,8-diazabicyclo[4.2.0]octane], for which the figures for the pKi in experiment [1] and in experiment [2] (setting [3]) were 7.08 and 6.66, respectively.

For `Cc1ccc(C(=O)N2CC[C@H]3CN(c4nccc(C(F)(F)F)n4)[C@H]3C2)c(-n2ccnn2)n1` [Example 93, (1R,6S)-3-{[6-Methyl-2-(1H-1,2,3-triazol-1-yl)pyridin-3-yl]carbonyl}-8-[4-(trifluoromethyl)pyrimidin-2-yl]-3,8-diazabicyclo[4.2.0]octane], the pKi was 6.64 in experiment [1] and 5.43 in experiment [2] (setting [3]).

As to `O=C(c1cc(F)ccc1-n1nccn1)N1CC[C@H]2CN(c3nccc(C(F)(F)F)n3)[C@H]2C1` [Example 94, (1R,6S)-3-{[5-Fluoro-2-(2H-1,2,3-triazol-2-yl)phenyl]carbonyl}-8-[4-(trifluoromethyl)pyrimidin-2-yl]-3,8-diazabicyclo[4.2.0]octane], the negative-log Ki (pKi) in experiment [1] was 6.43; in experiment [2] (setting [3]), 5.00.

For `O=C(c1c(F)cccc1-n1nccn1)N1CC[C@H]2CN(c3nccc(C(F)(F)F)n3)[C@H]2C1` [Example 95, (1R,6S)-3-{[2-Fluoro-6-(2H-1,2,3-triazol-2-yl)phenyl]carbonyl}-8-[4-(trifluoromethyl)pyrimidin-2-yl]-3,8-diazabicyclo[4.2.0]octane], the pKi in experiment [1] was 7.64; in experiment [2] (setting [3]), 6.20.

Turning to `Cc1cnc(C)c(N2C[C@@H]3CCN(C(=O)c4ccccc4-n4nccn4)C[C@@H]32)n1` [Example 96, (1R,6S)-8-(3,6-Dimethylpyrazin-2-yl)-3-{[2-(2H-1,2,3-triazol-2-yl)phenyl]carbonyl}-3,8-diazabicyclo[4.2.0]octane], the pKi in experiment [1] is 6.59; in experiment [2] (setting [3]) it was 5.23.

In the case of `Cc1cnc(C)c(N2C[C@@H]3CCN(C(=O)c4cc(F)ccc4-n4nccn4)C[C@@H]32)n1` [Example 97, (1R,6S)-8-(3,6-Dimethylpyrazin-2-yl)-3-{[5-fluoro-2-(2H-1,2,3-triazol-2-yl)phenyl]carbonyl}-3,8-diazabicyclo[4.2.0]octane], the pKi in experiment [1] is 5.89; in experiment [2] (setting [3]) it was 5.30.

With `Cc1cnc(C)c(N2C[C@@H]3CCN(C(=O)c4c(F)cccc4-n4nccn4)C[C@@H]32)n1` [Example 98, (1R,6S)-8-(3,6-Dimethylpyrazin-2-yl)-3-{[2-fluoro-6-(2H-1,2,3-triazol-2-yl)phenyl]carbonyl}-3,8-diazabicyclo[4.2.0]octane], the pKi was 6.56 in experiment [1] and 5.31 in experiment [2] (setting [3]).

Take `Cc1cnc(C)c(N2C[C@@H]3CCN(C(=O)c4cccc(F)c4-n4nccn4)C[C@@H]32)n1` [Example 99, (1R,6S)-8-(3,6-Dimethylpyrazin-2-yl)-3-{[3-fluoro-2-(2H-1,2,3-triazol-2-yl)phenyl]carbonyl}-3,8-diazabicyclo[4.2.0]octane]: the figures for the pKi in experiment [1] and in experiment [2] (setting [3]) were 7.02 and 5.38, respectively.

Turning to `Cc1cnc(N2C[C@@H]3CCN(C(=O)c4ccccc4-n4nccn4)C[C@@H]32)cn1` [Example 100, (1R,6S)-8-(5-Methylpyrazin-2-yl)-3-{[2-(2H-1,2,3-triazol-2-yl)phenyl]carbonyl}-3,8-diazabicyclo[4.2.0]octane], the pKi in experiment [1] was 6.70; in experiment [2] (setting [3]), 5.06.

Take `Cc1cnc(N2C[C@@H]3CCN(C(=O)c4c(F)cccc4-n4nccn4)C[C@@H]32)cn1` [Example 101, (1R,6S)-3-{[2-Fluoro-6-(2H-1,2,3-triazol-2-yl)phenyl]carbonyl}-8-(5-methylpyrazin-2-yl)-3,8-diazabicyclo[4.2.0]octane]: the pKi in experiment [1] was 6.72; in experiment [2] (setting [3]), 5.18.

Turning to `Cc1cnc(N2C[C@@H]3CCN(C(=O)c4ccc(F)cc4-n4nccn4)C[C@@H]32)cn1` [Example 102, (1R,6S)-3-{[4-Fluoro-2-(2H-1,2,3-triazol-2-yl)phenyl]carbonyl}-8-(5-methylpyrazin-2-yl)-3,8-diazabicyclo[4.2.0]octane], the pKi in experiment [1] is 6.38; in experiment [2] (setting [3]), 5.00.

For the compound `Cc1cnc(N2C[C@@H]3CCN(C(=O)c4cccc(F)c4-n4nccn4)C[C@@H]32)cn1` [Example 103, (1R,6S)-3-{[3-Fluoro-2-(2H-1,2,3-triazol-2-yl)phenyl]carbonyl}-8-(5-methylpyrazin-2-yl)-3,8-diazabicyclo[4.2.0]octane], the values for the pKi in experiment [1] and in experiment [2] were 6.44 and 5.00, respectively.

`Cc1cnc(N2C[C@@H]3CCN(C(=O)c4cc(F)ccc4-n4nccn4)C[C@@H]32)cn1` [Example 104, (1R,6S)-3-{[5-Fluoro-2-(2H-1,2,3-triazol-2-yl)phenyl]carbonyl}-8-(5-methylpyrazin-2-yl)-3,8-diazabicyclo[4.2.0]octane]: the pKi in experiment [1] is 6.47; in experiment [2] (setting [3]) it was 5.45.

For the compound `Cc1nccnc1N1C[C@@H]2CCN(C(=O)c3ccccc3-n3nccn3)C[C@@H]21` [Example 105, (1R,6S)-8-(3-Methylpyrazin-2-yl)-3-{[2-(2H-1,2,3-triazol-2-yl)phenyl]carbonyl}-3,8-diazabicyclo[4.2.0]octane], the pKi in experiment [1] and in experiment [2] (setting [3]) was 5.00 throughout.

As to `Cc1nccnc1N1C[C@@H]2CCN(C(=O)c3c(F)cccc3-n3nccn3)C[C@@H]21` [Example 106, (1R,6S)-3-{[2-Fluoro-6-(2H-1,2,3-triazol-2-yl)phenyl]carbonyl}-8-(3-methylpyrazin-2-yl)-3,8-diazabicyclo[4.2.0]octane], the pKi in experiment [1] and in experiment [2] (setting [3]) was 5.00 each time.

For the compound `Cc1nccnc1N1C[C@@H]2CCN(C(=O)c3ccc(F)cc3-n3nccn3)C[C@@H]21` [Example 108, (1R,6S)-3-{[4-Fluoro-2-(2H-1,2,3-triazol-2-yl)phenyl]carbonyl}-8-(3-methylpyrazin-2-yl)-3,8-diazabicyclo[4.2.0]octane], the pKi in experiment [1] and in experiment [2] (setting [3]) was 5.00 each time.

With `Cc1cncc(N2C[C@@H]3CCN(C(=O)c4cccc(F)c4-n4nccn4)C[C@@H]32)n1` [Example 110, (1R,6S)-3-{[3-Fluoro-2-(2H-1,2,3-triazol-2-yl)phenyl]carbonyl}-8-(6-methylpyrazin-2-yl)-3,8-diazabicyclo[4.2.0]octane], the pKi in experiment [1] was 6.66; in experiment [2] (setting [3]), 5.00.
